Structures are written as SMILES. pKi: −log10 of the molar value.

This note sets out measurements from ChEMBL document CHEMBL1138676, “Liver-selective glucocorticoid antagonists: a novel treatment for type 2 diabetes” (J Med Chem, 2004).

One experiment addresses T1, Androgen receptor (Homo sapiens, UniProt P10275).
T1 sequence (P10275 whole entry): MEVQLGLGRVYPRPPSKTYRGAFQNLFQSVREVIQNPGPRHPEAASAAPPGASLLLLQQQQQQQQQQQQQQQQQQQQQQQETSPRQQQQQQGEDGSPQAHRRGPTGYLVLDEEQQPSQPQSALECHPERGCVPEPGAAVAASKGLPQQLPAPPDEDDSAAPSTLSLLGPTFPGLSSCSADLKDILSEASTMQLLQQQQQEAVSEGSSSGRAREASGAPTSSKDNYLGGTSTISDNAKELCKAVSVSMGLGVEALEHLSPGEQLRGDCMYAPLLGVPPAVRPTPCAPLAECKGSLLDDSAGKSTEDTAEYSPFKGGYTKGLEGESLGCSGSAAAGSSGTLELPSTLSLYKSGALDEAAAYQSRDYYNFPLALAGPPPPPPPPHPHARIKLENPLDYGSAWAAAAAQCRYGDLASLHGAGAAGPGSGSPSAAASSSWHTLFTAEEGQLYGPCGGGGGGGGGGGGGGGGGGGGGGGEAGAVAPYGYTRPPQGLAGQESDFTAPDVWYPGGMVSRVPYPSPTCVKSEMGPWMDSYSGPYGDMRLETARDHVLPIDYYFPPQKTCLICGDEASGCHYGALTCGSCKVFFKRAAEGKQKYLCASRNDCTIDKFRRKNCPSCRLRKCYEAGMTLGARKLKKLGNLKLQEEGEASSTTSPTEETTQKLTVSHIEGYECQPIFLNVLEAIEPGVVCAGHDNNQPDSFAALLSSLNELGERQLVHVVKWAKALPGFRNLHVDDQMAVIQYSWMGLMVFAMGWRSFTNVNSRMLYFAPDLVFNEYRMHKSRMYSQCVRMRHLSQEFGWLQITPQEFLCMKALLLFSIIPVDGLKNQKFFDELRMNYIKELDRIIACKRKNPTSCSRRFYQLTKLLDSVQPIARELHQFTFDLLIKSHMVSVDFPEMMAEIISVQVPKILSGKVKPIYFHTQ

In experiment [1] the target is Glucocorticoid receptor (Rattus norvegicus) (UniProt P06536). The experiment can be described thus: Inhibition of glucocorticoid receptor mediated tyrosine amino transferase activity.
Glucocorticoid receptor (Rattus norvegicus), sequence (P06536 whole entry, looked up): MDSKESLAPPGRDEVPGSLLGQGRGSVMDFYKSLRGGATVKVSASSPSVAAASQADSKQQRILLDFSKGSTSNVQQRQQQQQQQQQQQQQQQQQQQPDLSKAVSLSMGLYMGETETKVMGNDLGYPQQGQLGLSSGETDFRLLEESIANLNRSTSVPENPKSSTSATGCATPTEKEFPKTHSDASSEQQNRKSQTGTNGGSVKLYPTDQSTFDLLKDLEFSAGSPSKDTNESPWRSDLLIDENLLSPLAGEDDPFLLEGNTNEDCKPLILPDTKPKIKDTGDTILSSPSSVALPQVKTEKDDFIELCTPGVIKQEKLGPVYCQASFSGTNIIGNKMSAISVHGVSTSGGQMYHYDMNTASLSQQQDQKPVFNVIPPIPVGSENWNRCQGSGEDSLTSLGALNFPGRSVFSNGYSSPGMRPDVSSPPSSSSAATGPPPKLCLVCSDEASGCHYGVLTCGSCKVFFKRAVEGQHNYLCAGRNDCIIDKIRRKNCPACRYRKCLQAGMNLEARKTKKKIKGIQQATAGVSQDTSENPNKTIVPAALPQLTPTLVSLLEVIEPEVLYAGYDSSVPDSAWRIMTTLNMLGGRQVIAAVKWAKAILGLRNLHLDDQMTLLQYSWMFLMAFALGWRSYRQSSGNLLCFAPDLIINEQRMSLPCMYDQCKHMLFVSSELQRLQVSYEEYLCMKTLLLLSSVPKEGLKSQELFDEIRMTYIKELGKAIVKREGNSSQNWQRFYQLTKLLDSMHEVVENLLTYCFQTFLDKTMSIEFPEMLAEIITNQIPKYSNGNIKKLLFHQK
Another experiment addresses T2, Estrogen receptor (Homo sapiens, UniProt P03372).
T2 sequence (P03372 whole entry): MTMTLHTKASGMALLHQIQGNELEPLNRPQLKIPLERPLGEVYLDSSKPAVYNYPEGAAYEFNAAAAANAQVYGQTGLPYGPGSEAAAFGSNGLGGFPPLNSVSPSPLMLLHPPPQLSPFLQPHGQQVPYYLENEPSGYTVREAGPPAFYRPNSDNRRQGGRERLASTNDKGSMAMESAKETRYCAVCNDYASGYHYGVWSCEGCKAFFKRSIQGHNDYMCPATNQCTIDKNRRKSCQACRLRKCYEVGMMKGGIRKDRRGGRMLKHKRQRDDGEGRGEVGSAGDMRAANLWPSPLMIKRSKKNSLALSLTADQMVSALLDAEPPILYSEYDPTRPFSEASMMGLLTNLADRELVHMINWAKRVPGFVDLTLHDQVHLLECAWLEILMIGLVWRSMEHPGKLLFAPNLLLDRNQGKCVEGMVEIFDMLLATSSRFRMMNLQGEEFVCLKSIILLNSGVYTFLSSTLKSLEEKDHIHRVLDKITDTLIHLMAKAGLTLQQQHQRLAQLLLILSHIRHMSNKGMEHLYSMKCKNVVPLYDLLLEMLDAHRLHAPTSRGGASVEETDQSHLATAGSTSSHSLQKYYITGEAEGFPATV
The experiment can be described thus: Inhibition of human Estrogen receptor alpha.

Experiment [2] deals with T3, Mineralocorticoid receptor (Homo sapiens, UniProt P08235).
T3 sequence (P08235 whole entry): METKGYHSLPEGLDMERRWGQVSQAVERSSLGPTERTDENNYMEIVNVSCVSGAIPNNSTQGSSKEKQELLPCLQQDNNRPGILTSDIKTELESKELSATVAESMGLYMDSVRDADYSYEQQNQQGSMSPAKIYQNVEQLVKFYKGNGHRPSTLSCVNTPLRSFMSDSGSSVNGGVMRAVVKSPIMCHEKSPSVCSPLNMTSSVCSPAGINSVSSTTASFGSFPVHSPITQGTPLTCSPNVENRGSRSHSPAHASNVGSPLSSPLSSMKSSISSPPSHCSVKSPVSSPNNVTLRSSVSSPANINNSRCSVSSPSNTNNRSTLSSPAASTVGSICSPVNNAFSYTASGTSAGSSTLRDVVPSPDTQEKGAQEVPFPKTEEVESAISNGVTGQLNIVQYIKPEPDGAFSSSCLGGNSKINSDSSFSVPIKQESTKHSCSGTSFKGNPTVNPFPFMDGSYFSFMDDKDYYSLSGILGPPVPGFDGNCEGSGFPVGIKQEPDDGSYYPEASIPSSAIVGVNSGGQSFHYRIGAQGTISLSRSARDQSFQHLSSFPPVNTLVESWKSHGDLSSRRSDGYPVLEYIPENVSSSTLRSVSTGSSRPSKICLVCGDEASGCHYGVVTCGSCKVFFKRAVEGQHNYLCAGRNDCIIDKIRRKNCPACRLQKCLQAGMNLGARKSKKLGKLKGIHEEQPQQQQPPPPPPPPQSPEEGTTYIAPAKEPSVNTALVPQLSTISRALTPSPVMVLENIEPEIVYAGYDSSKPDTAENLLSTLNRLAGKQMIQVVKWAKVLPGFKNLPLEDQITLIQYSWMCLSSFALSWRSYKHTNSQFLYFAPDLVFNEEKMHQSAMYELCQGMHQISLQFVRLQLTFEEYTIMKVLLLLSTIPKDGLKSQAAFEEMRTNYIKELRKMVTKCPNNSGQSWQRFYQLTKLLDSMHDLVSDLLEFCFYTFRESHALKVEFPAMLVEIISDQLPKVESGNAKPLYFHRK
Description: Inhibition of human Mineralocorticoid receptor

The next experiment deals with Estrogen receptor beta (Homo sapiens, UniProt Q92731). The experiment can be described thus: Inhibition of human Estrogen receptor beta.
Estrogen receptor beta, sequence (Q92731 whole entry): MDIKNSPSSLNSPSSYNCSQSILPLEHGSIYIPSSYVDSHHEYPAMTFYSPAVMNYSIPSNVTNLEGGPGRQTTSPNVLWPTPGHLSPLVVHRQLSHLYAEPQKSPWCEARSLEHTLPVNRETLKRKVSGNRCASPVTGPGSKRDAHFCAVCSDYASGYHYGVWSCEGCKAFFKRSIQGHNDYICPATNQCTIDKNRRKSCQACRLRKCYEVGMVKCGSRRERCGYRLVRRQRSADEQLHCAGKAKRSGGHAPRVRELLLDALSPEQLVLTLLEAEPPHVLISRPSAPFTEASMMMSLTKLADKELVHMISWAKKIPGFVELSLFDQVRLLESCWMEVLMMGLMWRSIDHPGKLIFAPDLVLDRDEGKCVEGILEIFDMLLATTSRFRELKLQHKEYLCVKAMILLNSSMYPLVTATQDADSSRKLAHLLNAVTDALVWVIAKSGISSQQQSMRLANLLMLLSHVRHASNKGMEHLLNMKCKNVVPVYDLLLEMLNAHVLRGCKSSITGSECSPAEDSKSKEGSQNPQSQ

Description for Androgen receptor: Inhibition of human androgen receptor

On to `C#C[C@]1(O)CC[C@H]2[C@@H]3CCC4=CC(=O)CCC4=C3[C@@H](c3ccc(N(C)CCOC4CC[C@@]5(C)[C@@H](C4)C[C@@H](O)[C@@H]4[C@@H]5C[C@H](O)[C@]5(C)[C@@H]([C@H](C)CCC(=O)O)CC[C@@H]45)cc3)C[C@@]21C` (stereo in doubt; form 2), for which the negative-log Ki (pKi) on Androgen receptor was 8.09; in experiment [1], 7.25; on Estrogen receptor it was 7.92; in experiment [2], 6.36; at Estrogen receptor beta, 6.96.

With `C#C[C@]1(O)CC[C@H]2[C@@H]3CCC4=CC(=O)CCC4=C3[C@@H](c3ccc(N(C)CCNC(=O)OC4CC[C@@]5(C)[C@@H](C4)C[C@@H](O)[C@@H]4[C@@H]5C[C@H](O)[C@]5(C)[C@@H]([C@H](C)CCC(=O)O)CC[C@@H]45)cc3)C[C@@]21C` (stereo not given in full), the pKi on Androgen receptor was 8.21; in experiment [1] it was 6.48; at Estrogen receptor, under 6.70; in experiment [2], under 6.00; on Estrogen receptor beta, under 6.12.
